These results are taken from patent US20230203041A1, “ANTAGONISTS OF THE ADENOSINE A2A RECEPTOR” (AdoRx Therapeutics Limited, priority 2020, published 2023).

A value given as a limit tells only on which side of the number the result lay.

Assay [1] deals with T1, human Adenosine A1 receptor (Homo sapiens, UniProt P30542).
T1 sequence (P30542 1-326): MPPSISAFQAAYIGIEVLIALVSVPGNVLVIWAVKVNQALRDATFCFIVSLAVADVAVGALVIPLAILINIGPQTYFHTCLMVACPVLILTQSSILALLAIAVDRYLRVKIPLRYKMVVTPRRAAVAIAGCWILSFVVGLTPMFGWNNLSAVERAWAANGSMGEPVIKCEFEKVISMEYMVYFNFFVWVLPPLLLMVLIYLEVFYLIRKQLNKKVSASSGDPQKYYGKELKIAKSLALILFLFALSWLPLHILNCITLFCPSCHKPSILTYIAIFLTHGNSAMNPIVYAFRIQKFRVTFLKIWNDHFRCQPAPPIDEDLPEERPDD
In words: Adenosine receptor TR-FRET binding assay (CA200645 displacement), A1. In general terms: Time-resolved FRET reads energy transfer from a long-lived donor to a nearby acceptor.

The target of assay [2] is T2, human Adenosine A3 receptor (Homo sapiens, UniProt P0DMS8).
T2 sequence (P0DMS8 1-318): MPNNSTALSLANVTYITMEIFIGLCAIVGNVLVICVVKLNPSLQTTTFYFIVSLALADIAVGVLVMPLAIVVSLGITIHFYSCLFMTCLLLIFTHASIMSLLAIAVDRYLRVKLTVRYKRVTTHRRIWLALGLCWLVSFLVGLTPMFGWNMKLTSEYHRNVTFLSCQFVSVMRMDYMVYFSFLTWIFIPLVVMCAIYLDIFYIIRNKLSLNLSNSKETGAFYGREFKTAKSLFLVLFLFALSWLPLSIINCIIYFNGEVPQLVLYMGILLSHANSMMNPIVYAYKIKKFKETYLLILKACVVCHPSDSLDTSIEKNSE
Description: Adenosine receptor TR-FRET binding assay (CA200645 displacement), A3.

The target in assay [3] is T3, human Adenosine A2b receptor (Homo sapiens, UniProt P29275).
T3 construct: expressed in transfected cells; host or cells: CHO cell membranes
T3 sequence (P29275 1-332): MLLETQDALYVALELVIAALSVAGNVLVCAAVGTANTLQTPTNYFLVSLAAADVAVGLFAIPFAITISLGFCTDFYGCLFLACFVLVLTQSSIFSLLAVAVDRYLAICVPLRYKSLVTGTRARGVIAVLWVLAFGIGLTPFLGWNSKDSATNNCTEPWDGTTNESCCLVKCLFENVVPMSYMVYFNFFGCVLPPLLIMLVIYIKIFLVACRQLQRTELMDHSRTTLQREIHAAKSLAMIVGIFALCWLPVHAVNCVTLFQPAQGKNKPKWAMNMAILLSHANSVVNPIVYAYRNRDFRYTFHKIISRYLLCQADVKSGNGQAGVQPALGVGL
In words: Adenosine receptor TR-FRET binding assay (CA200645 displacement), A2b. Particulars: 30 nM CA200645, CHO cell membranes, 2 hours at room temperature.

Assay [4] concerns CD8+ T cells in human whole blood. Description: Measurement of pCREB in CD8+ T cells in human whole blood. Particulars: T-cell, 1 h; heparinised human whole blood, rolipram, 3 μM NECA, 60 min, phospho-CREB in CD8+ T cells by FACS. In kind it is cell-based. The method in brief:
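Heparinised human whole blood preincubated 20 min at 37 °C with serially diluted A2a antagonists plus rolipram, then stimulated 60 min with 3 μM NECA (final). After fixation and RBC lysis, permeabilized leukocytes stained for phospho-CREB and CD8; pCREB in CD8+ T cells read by flow cytometry.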
Background: A flow cytometer gives signals particle by particle.

The target in assay [5] is T4, human Adenosine A2a receptor (Homo sapiens, UniProt P29274).
T4 construct: expressed in transfected cells; host or cells: CHO cell membranes
T4 sequence (P29274 whole entry): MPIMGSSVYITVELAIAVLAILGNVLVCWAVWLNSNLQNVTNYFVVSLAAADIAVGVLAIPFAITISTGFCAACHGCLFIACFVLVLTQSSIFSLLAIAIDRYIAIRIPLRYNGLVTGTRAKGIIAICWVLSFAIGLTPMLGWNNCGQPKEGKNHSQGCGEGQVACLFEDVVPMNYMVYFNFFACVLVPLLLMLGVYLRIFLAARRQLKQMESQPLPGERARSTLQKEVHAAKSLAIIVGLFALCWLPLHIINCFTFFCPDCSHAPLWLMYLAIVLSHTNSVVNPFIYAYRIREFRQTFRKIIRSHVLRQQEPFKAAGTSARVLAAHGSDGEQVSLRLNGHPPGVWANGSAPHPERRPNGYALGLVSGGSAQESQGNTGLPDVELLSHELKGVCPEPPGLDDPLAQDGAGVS
In words: Adenosine receptor TR-FRET binding assay (CA200645 displacement), A2a. Particulars: 100 nM CA200645, CHO cell membranes, 2 hours at room temperature.

The test system of assay [6] is human PBMCs. Description: CD3/CD28 stimulated IL-2 release NECA reversal assay in human PBMCs.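 Also: dose-response as % inhibition where 100% equals no-NECA control wells with CD3/CD28.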 In kind it is cell-based. Particulars: PBMC, CD3/CD28 antibody stimulated, 1 uM NECA, 24 hours, IL-2 in culture supernatant. A digest of the protocol:
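PBMCs from citrated donor blood, 50,000 cells/well on plate-bound CD3 antibody (1 ug/ml), with 1 ug/ml CD28 antibody, 1 uM NECA and antagonist at 0.003-10 μM final. After 24 h at 37° C, supernatant IL-2 was measured by MSD immunoassay.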

One may read the Ki as a measure of affinity in units of concentration, obtained from inhibition or displacement. Lower therefore signals higher affinity. As usually defined, the IC50 is the concentration that gives 50% inhibition. On to `Cc1cc(-c2c(-c3cccc(C#N)c3)nn3ccc(C(=O)NC[C@H](O)CO)nc23)cc(Cl)n1` [Example 6.13, 3-(2-Chloro-6-methyl-4-pyridyl)-2-(3-cyanophenyl)-N-[(2S)-2,3-dihydroxypropyl]pyrazolo[1,5-a]pyrimidine-5-carboxamide], for which the Ki is 424 nM in assay [1], above 1000 nM in assay [2], 17 nM in assay [3] and 1.7 nM in assay [5]. For the same compound, the IC50 in assay [4] is 390 nM; in assay [6], 32 nM.
As to `CO[C@H]1CN(C)C[C@@H]1NC(=O)c1ccn2nc(-c3cccc(C#N)c3)c(-c3cc(C)nc(Cl)c3)c2n1` [Example 6.14, 3-(2-Chloro-6-methyl-4-pyridyl)-2-(3-cyanophenyl)-N-[(3S,4S)-4-methoxy-1-methyl-pyrrolidin-3-yl]pyrazolo[1,5-a]pyrimidine-5-carboxamide], the Ki in assay [1] was 231 nM; in assay [2], above 1000 nM; in assay [3] it was 60 nM; in assay [5] it was 1.1 nM. In addition, the IC50 in assay [4] came to 370 nM; in assay [6], 18 nM.
On to `Cc1cc(-c2c(-c3cccc(C#N)c3)nn3ccc(C(=O)NC[C@@H](O)CO)nc23)cc(Cl)n1` [Example 6.15, 3-(2-Chloro-6-methyl-4-pyridyl)-2-(3-cyanophenyl)-N-[(2R)-2,3-dihydroxypropyl]pyrazolo[1,5-a]pyrimidine-5-carboxamide], for which the Ki in assay [1] is 115 nM; in assay [2], above 1000 nM; in assay [3] it was 3 nM; in assay [5], 0.7 nM. Moreover, the IC50 in assay [4] was found to be 240 nM; in assay [6], 14 nM.
On to `Cc1cc(-c2c(-c3cccc(C#N)c3)nn3ccc(C(=O)N(C)CC(C)(C)O)nc23)cc(Cl)n1` [Example 6.18, 3-(2-Chloro-6-methyl-4-pyridyl)-2-(3-cyanophenyl)-N-(2-hydroxy-2-methyl-propyl)-N-methyl-pyrazolo[1,5-a]pyrimidine-5-carboxamide], for which the Ki in assay [1] is 125 nM; in assay [2] it was above 1000 nM; in assay [3] it was 13 nM; in assay [5] it was 4.2 nM. Also, the IC50 in assay [4] worked out at 1690 nM; in assay [6] it was 93 nM.
For `Cc1cc(-c2c(-c3cccc(C#N)c3)nn3ccc(C(=O)N[C@H]4C[C@H](O)C4)nc23)cc(Cl)n1` [Example 6.19, 3-(2-Chloro-6-methyl-4-pyridyl)-2-(3-cyanophenyl)-N-(trans-3-hydroxycyclobutyl)pyrazolo[1,5-a]pyrimidine-5-carboxamide], the Ki in assay [1] is 456 nM; in assay [2], above 1000 nM; in assay [3], 22 nM; in assay [5] it was 0.3 nM. Besides, the IC50 came to 470 nM in assay [4] and 26 nM in assay [6].
As for `Cc1cc(-c2c(-c3cccc(C#N)c3)nn3ccc(C(=O)N[C@H]4C[C@@H](O)C4)nc23)cc(Cl)n1` [Example 6.20, 3-(2-Chloro-6-methyl-4-pyridyl)-2-(3-cyanophenyl)-N-(cis-3-hydroxycyclobutyl)pyrazolo[1,5-a]pyrimidine-5-carboxamide], the inhibitory constant (Ki) in assay [1] was 204 nM; in assay [2] it was above 1000 nM; in assay [3], 19 nM; in assay [5] it was 0.7 nM. Further, the IC50 came to 560 nM in assay [4] and 36.3 nM in assay [6].
`Cc1cc(-c2c(-c3cccc(C#N)c3)nn3ccc(C(=O)NC(C)(C)C#N)nc23)cc(Cl)n1` [Example 6.21, 3-(2-Chloro-6-methyl-4-pyridyl)-N-(1-cyano-1-methyl-ethyl)-2-(3-cyanophenyl)pyrazolo[1,5-a]pyrimidine-5-carboxamide]: the Ki in assay [1] is 252 nM; in assay [2], above 1000 nM; in assay [3] it was 17 nM; in assay [5], 0.1 nM. In addition, the results for the IC50 in assay [4] and in assay [6] were 430 nM and 1.3 nM, respectively.
Take `Cc1cc(-c2c(-c3cccc(C#N)c3)nn3ccc(C(=O)NC(C)(C)CO)nc23)cc(Cl)n1` [Example 6.22, 3-(2-Chloro-6-methyl-4-pyridyl)-2-(3-cyanophenyl)-N-(2-hydroxy-1,1-dimethyl-ethyl)pyrazolo[1,5-a]pyrimidine-5-carboxamide]: the Ki in assay [1] was 61 nM; in assay [2] it was 1910 nM; in assay [3] it was 5 nM; in assay [5] it was 0.1 nM. Further, the IC50 in assay [4] stood at 100 nM; in assay [6], 2.5 nM.
Regarding `Cc1cc(-c2c(-c3cccc(C#N)c3)nn3ccc(C(=O)NC(C)(C)C(C)(C)O)nc23)cc(Cl)n1` [Example 6.23, 3-(2-Chloro-6-methyl-4-pyridyl)-2-(3-cyanophenyl)-N-(2-hydroxy-1,1,2-trimethyl-propyl)pyrazolo[1,5-a]pyrimidine-5-carboxamide], the Ki in assay [1] was 223 nM; in assay [2], above 1000 nM; in assay [3], 74 nM; in assay [5], 0.4 nM. In addition, the results for the IC50 in assay [4] and in assay [6] were 330 nM and 5.7 nM, respectively.
As to `Cc1cc(-c2c(-c3cccc(C#N)c3)nn3ccc(C(=O)NCCC(C)(C)N)nc23)cc(Cl)n1` [Example 7, N-(3-Amino-3-methyl-butyl)-3-(2-chloro-6-methyl-4-pyridyl)-2-(3-cyanophenyl)pyrazolo[1,5-a]pyrimidine-5-carboxamide], the Ki in assay [1] was 143 nM; in assay [2], above 1000 nM; in assay [3], 5 nM; in assay [5], 0.4 nM. Besides, the IC50 came out at 280 nM in assay [4] and 34 nM in assay [6].
As for `Cc1cc(-c2c(-c3cccc(C#N)c3)nn3ccc(C(=O)N[C@H]4CNC[C@H]4O)nc23)cc(Cl)n1` [Example 7.2, 3-(2-Chloro-6-methyl-4-pyridyl)-2-(3-cyanophenyl)-N-[cis-(3S,4R)-4-hydroxypyrrolidin-3-yl]pyrazolo[1,5-a]pyrimidine-5-carboxamide], the Ki in assay [1] is 458 nM; in assay [2], above 1000 nM; in assay [3], 3 nM; in assay [5], 2.6 nM. The IC50 was 1070 nM in assay [4] and 70 nM in assay [6].
Regarding `Cc1cc(-c2c(-c3cccc(C#N)c3)nn3ccc(C(=O)NC(C)(C)CN)nc23)cc(Cl)n1` [Example 7.3, N-(2-Amino-1,1-dimethyl-ethyl)-3-(2-chloro-6-methyl-4-pyridyl)-2-(3-cyanophenyl)pyrazolo[1,5-a]pyrimidine-5-carboxamide], the Ki was 44 nM in assay [1], above 1000 nM in assay [2], 15 nM in assay [3] and 2.9 nM in assay [5]. The IC50 in assay [4] worked out at 1800 nM; in assay [6], 172 nM.
Consider `Cc1cc(-c2c(-c3cccc(C#N)c3)nn3ccc(C(=O)N[C@H](C)[C@H](O)CO)nc23)cc(Cl)n1` [Example 7.9, 3-(2-Chloro-6-methyl-4-pyridyl)-2-(3-cyanophenyl)-N-[(1 R,2S)-2,3-dihydroxy-1-methyl-propyl]pyrazolo[1,5-a]pyrimidine-5-carboxamide], for which the Ki in assay [1] was 160 nM; in assay [2] it was above 1000 nM; in assay [3], 2 nM; in assay [5], 0.6 nM. Moreover, the IC50 was 70 nM in assay [4] and 4 nM in assay [6].
With `Cc1cc(-c2c(-c3cccc(C#N)c3)nn3ccc(C(=O)N[C@H]4CC[C@H](N)C4)nc23)cc(Cl)n1` [Example 7.14, 3-(2-Chloro-6-methyl-4-pyridyl)-2-(3-cyanophenyl)-N-[(1S,3S)-3-aminocyclopentyl]pyrazolo[1,5-a]pyrimidine-5-carboxamide], the Ki in assay [1] is 249 nM; in assay [2], above 1000 nM; in assay [3], 32 nM; in assay [5] it was 2.8 nM. In addition, the values for the 50% inhibitory concentration (IC50) in assay [4] and in assay [6] were 1930 nM and 142 nM, respectively.
